According to PMC5896373 (Molecular Pharmacology, 2018):
Where “and” joins values, the source holds several entries; their conditions need not be identical. Equal entries are not always repeated.

Key:
[1] = biological target: T1, P2X7-2Nβ receptor (Homo sapiens, UniProt Q99572, I21V/M24R/N16P/N25R/Q22R/R20V/S23N/T19I/Y26L); test: Two-electrode voltage clamp of ATP-evoked currents in Xenopus oocytes; format: cell-based; settings: inhibition of EC90 ATP response
T1 construct: expressed in transfected cells; host or cells: Xenopus laevis oocytes (cRNA injection)
T1 sequence (Q99572 whole entry N16P/T19I/R20V/I21V/Q22R/S23N/M24R/N25R/Y26L): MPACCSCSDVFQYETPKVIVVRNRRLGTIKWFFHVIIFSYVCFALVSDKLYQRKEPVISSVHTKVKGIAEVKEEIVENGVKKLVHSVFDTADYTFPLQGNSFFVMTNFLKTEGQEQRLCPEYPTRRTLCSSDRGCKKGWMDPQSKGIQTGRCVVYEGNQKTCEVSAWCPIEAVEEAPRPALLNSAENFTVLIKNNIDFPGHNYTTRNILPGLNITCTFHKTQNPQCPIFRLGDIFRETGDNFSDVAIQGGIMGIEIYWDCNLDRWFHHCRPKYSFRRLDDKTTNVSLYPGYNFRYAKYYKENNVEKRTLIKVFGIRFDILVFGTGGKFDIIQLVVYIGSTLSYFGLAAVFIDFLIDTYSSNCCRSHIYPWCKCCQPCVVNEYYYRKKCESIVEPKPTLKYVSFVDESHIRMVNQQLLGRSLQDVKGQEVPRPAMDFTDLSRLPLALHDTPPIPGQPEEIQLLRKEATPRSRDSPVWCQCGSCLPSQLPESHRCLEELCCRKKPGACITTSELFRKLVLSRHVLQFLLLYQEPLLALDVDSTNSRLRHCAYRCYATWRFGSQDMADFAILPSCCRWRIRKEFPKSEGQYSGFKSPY
Procedure: (§1) The production of the correct mutations and absence of coding errors was determined by DNA sequencing (Automated ABI Sequencing Service, University of Leicester, UK). cRNA was generated for the mutants and 50 nl (50 ng) was injected into manually defoliculated stage V Xenopus laevis oocytes using an Inject+Matic microinjector (J.A. Gabay, Inject+Matic, Geneva, Switzerland). Injected oocytes were stored at 16°C in ND96 buffer [in millimolar concentrations, NaCl 96, KCl 2, CaCl2 1.8, MgCl2 1, sodium pyruvate 5, and HEPES 5 (pH 7.6) supplemented with 50 μg/ml gentamycin and 50 μg/ml tetracycline]. Three to seven days postinjection two-electrode voltage clamp recordings were made from oocytes bathed in divalent-free ND96 buffer (in millimolar concentrations, NaCl 96, KCl 2, sodium pyruvate 5, HEPES 5, and 0.1 flufenamic acid, pH 7.6). Oocytes were voltage clamped at a holding potential of −60 mV with a GeneClamp500B amplifier (Molecular Devices).
(§2) Inhibition by the antagonists was expressed as the percentage of the peak current amplitude of an EC90 concentration of ATP recorded before the application of antagonist (ATP gave reproducible responses to ATP in the absence of antagonist). Inhibition curves were fitted with the Hill equation (variable slope) using GraphPad Prism 6 (GraphPad Software, San Diego, CA). […] Individual concentration-response curves were generated for individual experiments, and statistical analysis was carried out on the data generated. […] Data are shown as mean ± S.E.M. In all cases n ≥ 3 for all data points.

[2] = biological target: T2, chimeric P2X7/1 receptor 164–168 (Homo sapiens, UniProt Q99572, A166G/I21V/M24R/N16P/N25R/Q22R/R20V/S165F/S23N/T19I/V164I/Y26L); test: as above; format: cell-based; settings: chimera 164–168; for IC50: inhibition of EC90 ATP response
T2 construct: expressed in transfected cells; host or cells: Xenopus laevis oocytes (cRNA injection)
T2 sequence (Q99572 1-595 N16P/T19I/R20V/I21V/Q22R/S23N/M24R/N25R/Y26L/V164I/S165F/A166G): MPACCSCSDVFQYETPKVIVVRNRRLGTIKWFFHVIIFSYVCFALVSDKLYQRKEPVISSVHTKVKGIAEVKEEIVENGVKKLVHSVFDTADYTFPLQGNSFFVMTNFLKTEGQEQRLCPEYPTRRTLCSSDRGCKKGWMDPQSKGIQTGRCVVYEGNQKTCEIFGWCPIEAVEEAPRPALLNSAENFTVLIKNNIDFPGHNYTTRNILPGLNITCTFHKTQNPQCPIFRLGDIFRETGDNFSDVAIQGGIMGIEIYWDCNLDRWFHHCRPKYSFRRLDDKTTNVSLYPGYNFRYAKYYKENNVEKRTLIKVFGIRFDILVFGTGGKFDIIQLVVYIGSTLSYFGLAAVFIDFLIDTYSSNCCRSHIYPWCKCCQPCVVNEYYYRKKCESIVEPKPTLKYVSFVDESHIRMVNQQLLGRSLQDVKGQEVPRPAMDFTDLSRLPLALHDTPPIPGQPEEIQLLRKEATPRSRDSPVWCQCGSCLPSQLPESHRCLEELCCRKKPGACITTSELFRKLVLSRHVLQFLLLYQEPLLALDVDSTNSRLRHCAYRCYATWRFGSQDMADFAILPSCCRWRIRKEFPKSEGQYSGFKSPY
Procedure: (§3) Additional point mutants were made using the QuikChange mutagenesis kit (Stratagene California, La Jolla, CA). The production of the correct mutations and absence of coding errors was determined by DNA sequencing (Automated ABI Sequencing Service, University of Leicester, UK). cRNA was generated for the mutants and 50 nl (50 ng) was injected into manually defoliculated stage V Xenopus laevis oocytes using an Inject+Matic microinjector (J.A. Gabay, Inject+Matic, Geneva, Switzerland). Injected oocytes were stored at 16°C in ND96 buffer [in millimolar concentrations, NaCl 96, KCl 2, CaCl2 1.8, MgCl2 1, sodium pyruvate 5, and HEPES 5 (pH 7.6) supplemented with 50 μg/ml gentamycin and 50 μg/ml tetracycline]. Three to seven days postinjection two-electrode voltage clamp recordings were made from oocytes bathed in divalent-free ND96 buffer (in millimolar concentrations, NaCl 96, KCl 2, sodium pyruvate 5, HEPES 5, and 0.1 flufenamic acid, pH 7.6). Oocytes were voltage clamped at a holding potential of −60 mV with a GeneClamp500B amplifier (Molecular Devices).
(§4) Inhibition by the antagonists was expressed as the percentage of the peak current amplitude of an EC90 concentration of ATP recorded before the application of antagonist (ATP gave reproducible responses to ATP in the absence of antagonist). Inhibition curves were fitted with the Hill equation (variable slope) using GraphPad Prism 6 (GraphPad Software, San Diego, CA). […] Individual concentration-response curves were generated for individual experiments, and statistical analysis was carried out on the data generated. When shown in figures, the inhibition curves are fitted to the mean normalized data. […] Data are shown as mean ± S.E.M. In all cases n ≥ 3 for all data points.

[3] = biological target: T3, chimeric P2X7/1 receptor 279–285 (left flipper) (Homo sapiens, UniProt Q99572, DEL279-281/I21V/M24R/N16P/N25R/N284E/Q22R/R20V/S23N/T19I/T282Y/T283E/V285K/Y26L); test: as above; format: cell-based; settings: chimera 279–285; for IC50: inhibition of EC90 ATP response
T3 construct: expressed in transfected cells; host or cells: Xenopus laevis oocytes (cRNA injection)
T3 sequence (Q99572 with tags, fused parts or gaps N16P/T19I/R20V/I21V/Q22R/S23N/M24R/N25R/Y26L/DEL279-281/T282Y/T283E/N284E/V285K): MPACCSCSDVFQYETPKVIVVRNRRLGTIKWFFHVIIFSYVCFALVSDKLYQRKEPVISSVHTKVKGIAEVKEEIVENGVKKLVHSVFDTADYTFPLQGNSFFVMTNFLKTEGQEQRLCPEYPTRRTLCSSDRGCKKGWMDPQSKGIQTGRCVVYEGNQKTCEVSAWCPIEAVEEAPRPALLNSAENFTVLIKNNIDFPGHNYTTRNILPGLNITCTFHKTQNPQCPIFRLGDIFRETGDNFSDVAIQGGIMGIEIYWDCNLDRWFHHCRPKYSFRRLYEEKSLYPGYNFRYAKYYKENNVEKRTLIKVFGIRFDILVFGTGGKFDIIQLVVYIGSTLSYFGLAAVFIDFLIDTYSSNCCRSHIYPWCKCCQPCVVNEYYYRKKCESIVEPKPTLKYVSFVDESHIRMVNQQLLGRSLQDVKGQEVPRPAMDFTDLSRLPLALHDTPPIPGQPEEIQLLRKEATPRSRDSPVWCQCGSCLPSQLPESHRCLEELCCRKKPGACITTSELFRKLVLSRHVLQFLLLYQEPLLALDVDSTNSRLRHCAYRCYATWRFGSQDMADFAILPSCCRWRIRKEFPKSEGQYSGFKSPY
Procedure: as §1, §2

[4] = biological target: T4, P2X7R point mutant S86A (Homo sapiens, UniProt Q99572, I21V/M24R/N16P/N25R/Q22R/R20V/S23N/S86A/T19I/Y26L); test: as above; format: cell-based; settings: EC90 ATP, mean ± S.E.M.
T4 construct: expressed in transfected cells; host or cells: Xenopus laevis oocytes (cRNA injection)
T4 sequence (Q99572 whole entry N16P/T19I/R20V/I21V/Q22R/S23N/M24R/N25R/Y26L/S86A): as the sequence (Q99572 whole entry N16P/T19I/R20V/I21V/Q22R/S23N/M24R/N25R/Y26L) above, with S86A counted along it
Procedure: as §3
Inhibition by the antagonists was expressed as the percentage of the peak current amplitude of an EC90 concentration of ATP recorded before the application of antagonist (ATP gave reproducible responses to ATP in the absence of antagonist). […]

[5] = biological target: T5, P2X7R mutant Insert G99 (Homo sapiens, UniProt Q99572, I21V/INS99D/M24R/N16P/N25R/Q22R/R20V/S23N/T19I/Y26L); test: as above; format: cell-based; settings: EC90 ATP, mean ± S.E.M.
T5 construct: expressed in transfected cells; host or cells: Xenopus laevis oocytes (cRNA injection)
T5 sequence (Q99572 with tags, fused parts or gaps N16P/T19I/R20V/I21V/Q22R/S23N/M24R/N25R/Y26L/INS99D): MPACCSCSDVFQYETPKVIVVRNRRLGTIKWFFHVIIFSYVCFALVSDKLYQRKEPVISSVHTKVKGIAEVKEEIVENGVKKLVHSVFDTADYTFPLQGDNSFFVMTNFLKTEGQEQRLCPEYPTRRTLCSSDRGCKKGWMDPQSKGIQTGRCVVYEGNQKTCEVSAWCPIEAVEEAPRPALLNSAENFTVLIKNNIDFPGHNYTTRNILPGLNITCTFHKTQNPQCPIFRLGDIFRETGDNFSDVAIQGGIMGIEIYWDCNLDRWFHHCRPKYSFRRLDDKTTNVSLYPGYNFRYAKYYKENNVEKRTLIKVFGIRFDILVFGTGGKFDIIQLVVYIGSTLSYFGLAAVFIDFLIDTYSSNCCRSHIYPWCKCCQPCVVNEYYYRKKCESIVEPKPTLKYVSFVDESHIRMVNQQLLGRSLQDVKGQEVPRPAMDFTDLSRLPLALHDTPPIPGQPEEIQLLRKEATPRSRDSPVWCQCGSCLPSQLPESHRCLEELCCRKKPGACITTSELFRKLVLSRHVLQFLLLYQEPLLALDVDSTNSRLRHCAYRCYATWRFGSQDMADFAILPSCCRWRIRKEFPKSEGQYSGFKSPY
Procedure: (§5) Injected oocytes were stored at 16°C in ND96 buffer [in millimolar concentrations, NaCl 96, KCl 2, CaCl2 1.8, MgCl2 1, sodium pyruvate 5, and HEPES 5 (pH 7.6) supplemented with 50 μg/ml gentamycin and 50 μg/ml tetracycline]. Three to seven days postinjection two-electrode voltage clamp recordings were made from oocytes bathed in divalent-free ND96 buffer (in millimolar concentrations, NaCl 96, KCl 2, sodium pyruvate 5, HEPES 5, and 0.1 flufenamic acid, pH 7.6). Oocytes were voltage clamped at a holding potential of −60 mV with a GeneClamp500B amplifier (Molecular Devices).
as §4

[6] = biological target: T6, P2X7R point mutant V304C (Homo sapiens, UniProt Q99572, I21V/M24R/N16P/N25R/Q22R/R20V/S23N/T19I/V304C/Y26L); test: as above; format: cell-based; settings: EC90 ATP, mean ± S.E.M.
T6 construct: expressed in transfected cells; host or cells: Xenopus laevis oocytes (cRNA injection)
T6 sequence (Q99572 whole entry N16P/T19I/R20V/I21V/Q22R/S23N/M24R/N25R/Y26L/V304C): as the sequence (Q99572 whole entry N16P/T19I/R20V/I21V/Q22R/S23N/M24R/N25R/Y26L) above, with V304C counted along it
Procedure: as §5, §2

[7] = biological target: T7, P2X7R point mutant L83A (Homo sapiens, UniProt Q99572, I21V/L83A/M24R/N16P/N25R/Q22R/R20V/S23N/T19I/Y26L); test: as above; format: cell-based; settings: EC90 ATP, mean ± S.E.M.
T7 construct: expressed in transfected cells; host or cells: Xenopus laevis oocytes (cRNA injection)
T7 sequence (Q99572 whole entry N16P/T19I/R20V/I21V/Q22R/S23N/M24R/N25R/Y26L/L83A): as the sequence (Q99572 whole entry N16P/T19I/R20V/I21V/Q22R/S23N/M24R/N25R/Y26L) above, with L83A counted along it
Procedure: as §5, §2

[8] = biological target: T8, P2X7R point mutant D92A (Homo sapiens, UniProt Q99572, D92A/I21V/M24R/N16P/N25R/Q22R/R20V/S23N/T19I/Y26L); test: as above; format: cell-based; settings: EC90 ATP, mean ± S.E.M.
T8 construct: expressed in transfected cells; host or cells: Xenopus laevis oocytes (cRNA injection)
T8 sequence (Q99572 whole entry N16P/T19I/R20V/I21V/Q22R/S23N/M24R/N25R/Y26L/D92A): as the sequence (Q99572 whole entry N16P/T19I/R20V/I21V/Q22R/S23N/M24R/N25R/Y26L) above, with D92A counted along it
Procedure: as §5, §2

[9] = biological target: T9, P2X7R point mutant F108C (Homo sapiens, UniProt Q99572, F108C/I21V/M24R/N16P/N25R/Q22R/R20V/S23N/T19I/Y26L); test: cell-based
T9 construct: expressed in transfected cells; host or cells: Xenopus laevis oocytes (cRNA injection)
T9 sequence (Q99572 whole entry N16P/T19I/R20V/I21V/Q22R/S23N/M24R/N25R/Y26L/F108C): as the sequence (Q99572 whole entry N16P/T19I/R20V/I21V/Q22R/S23N/M24R/N25R/Y26L) above, with F108C counted along it
Procedure: as §5, §2

Structure (SMILES)	IC50 [1]	IC50 [2] [nM]	IC50 [3] [nM]	IC50 [4] [nM]	IC50 [5] [nM]	IC50 [6] [nM]	IC50 [7] [nM]	IC50 [8] [nM]	IC50 [9] [nM]	fold decrease in antagonist sensitivity relative to P2X7-2Nβ [2] [fold]	fold decrease in antagonist sensitivity relative to P2X7-2Nβ [3] [fold]
Cl.Clc1cccc(-c2nnnn2Cc2cccnc2)c1Cl.O [A438079, 3-(5-(2,3-dichlorophenyl)-1H-tetrazol-1-yl)methyl pyridine hydrochloride hydrate]	933 nM and 1000 nM	10000	31600	1000	12600	63.1	794	> 100000	10000	–	–
COc1ccc(CC(=O)NC(N=C(NC#N)Nc2cccc3ncccc23)C(C)(C)C)cc1OC (centres unmarked) [A740003, N-[1-[[(cyanoamino)(5-quinolinylamino)methylene]amino]-2,2-dimethylpropyl]-3,4-dimethoxybenzeneacetamide]	79.4 nM	398	631	79.4	1580	100	316	7940	1000	~5	~9
